Data reported in patent publication US7785611B2, “Parenteral vaccine formulations and uses thereof” (ALK-Abello A/S, priority 2000, dated 2010).

What was measured:
[1] = current use as antacid, laxative, topical or cosmetic; cited from earlier work
[2] = test system: TT-specific antibodies of the IgG class; set-up: species or system BALB/Ca mice; settings: mouse, in vivo
Experimental: (§1) Tetanus toxoid (TT) containing 3.0 mg protein/ml, (obtained from Statens Serum Institut, DK-2300 Copenhagen S, Denmark).
(§2) Prepared from Mg(OH)2 gel (Reheis, USA). • Magnesium carbonate hydroxide pentahydrate, (MgCO3)4Mg(OH)25H2O, 0.05 M Mg^2+. […] Preparation of the Vaccine Formulations: […]
(§3) TT was dissolved or diluted to a concentration 10 times that of the concentration in the final vaccine formulation. The adjuvant was dissolved or diluted to a concentration five times that of the concentration in the final vaccine formulation, with regard to the cation. 1 volume TT solution was slowly mixed with 2 volumes adjuvant, and left stirring over night at 4° C. The following day 7 volumes Coca 0.0 buffer (0.25% sodium hydrogen carbonate and 0.5% sodium chloride) was slowly added. The adjuvant free vaccine was prepared as above, with the modification that the adjuvant was substituted with Coca 0.0 buffer. […]
(§4) Blood samples were drawn from the retro orbital vein every 7 days, starting on day 0. Serum was separated from the blood sample, and stored at −20° C., until analysed.
(§5) Serum samples were analysed for the presence of TT-specific immune response by means of a direct enzyme linked immunosorbent assay (ELISA), measuring TT-specific antibodies of the IgG class. […]
(§6) Bound antibodies were detected by serial incubations of the plate with a biotinylated, polyclonal antiserum to mouse IgG (obtained from Jackson Laboratories, Bar Harbour, Me., USA) followed by a streptavidine-horseradish peroxidase conjugate (obtained from DAKO A/S, Glostrup, Denmark). The plates were developed for 20 minutes with 100 μl readymade TMB substrate (Kem-En-Tech, Denmark) per well, and the reaction as stopped with an equal volume of 1M H2SO4.
(§7) The developed colour reaction was measured as absorption at 450 nm. […]
(§8) The strength of the TT-specific antibody response in each serum sample was measured as an arbitrary titre, determined as the serum dilution giving an absorption signal equal to 50% of that obtained with a 3000 fold dilution of the TT-specific monoclonal antibody. […]

[3] = test system: TT-specific antibodies of the IgG class; set-up: species or system BALB/Ca mice; settings: mouse, in vivo, sc
Experimental: as §1, §2, §3, §4, §5, §6, §7, §8

[4] = magnesium hydroxide alone; cited from earlier work

Compound	Dose (recommended maximum dose) [1] [g per kg bodyweight]	onset of specific immune response compared with Al(OH)3 formulation [2]	potency at inducing TT-specific antibodies compared with vaccine formulation containing Al(OH)3 [3]	adsorbent activity [4]
Titanium dioxide	1.0	earlier onset	more potent	
[Mg+2].[OH-].[OH-] [magnesium hydroxide, Magnesium hydroxide]	0.5	earlier onset	more potent	low
Magnesium carbonate hydroxide pentahydrate [magnesium carbonate pentahydrate]	0.5	earlier onset	more potent	
